Earlier results, collected in patent publication US9528030B1, “Cobalt inhibitor combination for improved dishing” (Cabot Microelectronics Corporation, priority 2015, dated 2016).
Where two headings read alike, the source gives them in different places.

Details: n-octanol-water

Compound | Azole Compound logP | Azole Compound logP (listed as benzotriazole)
O=C(O)Cc1nnn[nH]1 [1H-Tetrazole-5-acetic acid] | −1.54 | –
Nc1n[nH]c(C(=O)O)n1 [3-Amino-1,2,4-triazole-5-carboxylic acid] | −1.51 | –
Nc1nnn[nH]1 [5-Aminotetrazole] | −0.92 | –
c1ccc2[nH]nnc2c1 [BTA, benzotriazole] | +1.44 | 1.44
